# In patent publication US20110039721A1, “METHOD FOR PREDICTION ABOUT CARCINOGENICITY OF SUBSTANCE IN RODENT” (Chemicals Evaluation and Research Institute, priority 2007, published 2011):
# Columns and labels:
# rodent = conditions: in vivo; cited from earlier work
# [1] = tested on: mRNA expressed from the genes (A) to (D) in rat liver; assay: Behavior of genes (mRNA expression level, oligo-DNA microarray) in rat liver after 28-day oral administration; format: in vivo; conditions: rat liver, oral once daily 28 days
# Summary of the method: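 Groups of four male F344 SPF rats aged 5 weeks are gavaged once a day for 28 days with test chemical in solvent or with solvent alone at equal volume. Total RNA comes from liver taken on day 28. Fold change of 1.5 or 1/1.5 versus control, directionally consistent, defines significance.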
# liver = conditions: in vivo; cited from earlier work
# [2] = (C), Unigene Rn.120914, defined direction +
smiles,measurement,setting,value
"CN(C)N=O [TS041, N-Nitrosodimethylamine]",Carcinogenicity,rodent,C+
same,"Behavior of gene caused by administration of chemical substance, Gene No. 4846","[1]; (A), Unigene Rn.144554, defined direction +",+
same,"Behavior of gene caused by administration of chemical substance, Gene No. 4218","[1]; (A), Unigene Rn.167075, defined direction +, significant = 1.5 times or more or 1/1.5 or less of control",+
same,"Behavior of gene caused by administration of chemical substance, Gene No. 2026","[1]; (A), Unigene Rn.167075, defined direction −",−
same,"Behavior of gene caused by administration of chemical substance, Gene No. 6182","[1]; (A), Unigene Rn.5834, defined direction +",+
same,"Behavior of gene caused by administration of chemical substance, Gene No. 5600","[1]; (A), Unigene Rn.9836, defined direction +",+
same,"Behavior of gene caused by administration of chemical substance, Gene No. 1494","[1]; (B), Unigene Rn.1430, defined direction −",−
same,"Behavior of gene caused by administration of chemical substance, Gene No. 2045","[1]; (B), Unigene Rn.19329, defined direction +",−
same,"Behavior of gene caused by administration of chemical substance, Gene No. 2203","[1]; (B), Unigene Rn.21240, defined direction +",−
same,"Behavior of gene caused by administration of chemical substance, Gene No. 533","[1]; (C), Unigene Rn.106184, defined direction +",−
same,"Behavior of gene caused by administration of chemical substance, Gene No. 725","[1]; (C), Unigene Rn.108075, defined direction −",−
same,"Behavior of gene caused by administration of chemical substance, Gene No. 1163","[1]; (C), Unigene Rn.11766, defined direction +",−
same,"Behavior of gene caused by administration of chemical substance, Gene No. 4973","[1]; (C), Unigene Rn.118529, defined direction −",−
same,"Behavior of gene caused by administration of chemical substance, Gene No. 4095","[1]; (C), Unigene Rn.119024, defined direction −",−
same,"Behavior of gene caused by administration of chemical substance, Gene No. 1334",[1]; [2],−
same,"Behavior of gene caused by administration of chemical substance, Gene No. 6620",[1]; [2],−
same,"Behavior of gene caused by administration of chemical substance, Gene No. 6303","[1]; (C), Unigene Rn.123063, defined direction −",−
same,"Behavior of gene caused by administration of chemical substance, Gene No. 5878","[1]; (C), Unigene Rn.143213, defined direction −",−
same,"Behavior of gene caused by administration of chemical substance, Gene No. 1131","[1]; (C), Unigene Rn.144946, defined direction −",−
same,"Behavior of gene caused by administration of chemical substance, Gene No. 1562","[1]; (C), Unigene Rn.14744, defined direction −",−
same,"Behavior of gene caused by administration of chemical substance, Gene No. 1741","[1]; (C), Unigene Rn.1647, defined direction −",−
same,"Behavior of gene caused by administration of chemical substance, Gene No. 893","[1]; (C), Unigene Rn.164817, defined direction +",−
same,"Behavior of gene caused by administration of chemical substance, Gene No. 6026","[1]; (C), Unigene Rn.167685, defined direction −",−
same,"Behavior of gene caused by administration of chemical substance, Gene No. 154","[1]; (C), Unigene Rn.185941, defined direction −",−
same,"Behavior of gene caused by administration of chemical substance, Gene No. 1993","[1]; (C), Unigene Rn.18728, defined direction −",−
same,"Behavior of gene caused by administration of chemical substance, Gene No. 813","[1]; (C), Unigene Rn.201760, defined direction +",−
same,"Behavior of gene caused by administration of chemical substance, Gene No. 2494","[1]; (C), Unigene Rn.23969, defined direction +",−
same,"Behavior of gene caused by administration of chemical substance, Gene No. 2546","[1]; (C), Unigene Rn.24561, defined direction −",−
same,"Behavior of gene caused by administration of chemical substance, Gene No. 3776","[1]; (C), Unigene Rn.43232, defined direction −",−
same,"Behavior of gene caused by administration of chemical substance, Gene No. 3929","[1]; (C), Unigene Rn.4620, defined direction +",−
same,"Behavior of gene caused by administration of chemical substance, Gene No. 1119","[1]; (C), Unigene Rn.9757, defined direction +",−
same,"Behavior of gene caused by administration of chemical substance, Gene No. 6742","[1]; (C), Unigene Rn.9779, defined direction +",+
same,"Behavior of gene caused by administration of chemical substance, Gene No. 5634","[1]; (C), Unigene Rn.9862, defined direction −",−
same,"Behavior of gene caused by administration of chemical substance, Gene No. 5726","[1]; (D), Unigene Rn.9939, defined direction −",−
same,Liver carcinogenicity,liver,Cr+
